In patent US8247449B2, “Methods and compositions for the treatment of asthma” (Wake Forest University, priority 1998, dated 2012):
Entries after “also recorded” stand apart in the source; their conditions may differ. Read-outs that look alike come from different tables or passages of the source. Values belong to the compound of their own block, whether it stands above or below them.

Legend:
human neutrophils [1] = assay: In vitro metabolism of stearidonic acid in cultured human neutrophils; assay type: cell-based; settings: 24 h
From the text: As described above, human neutrophils (in vitro in overnight culture) will take up GLA and elongate it to DGLA but not further desaturate that DGLA to AA. An alternative route to depleting AA in neutrophils may also be useful in modulating the inflammatory responses mediated by AA and its metabolites. It was contemplated that the n-3 fatty acid, stearidonic acid (18:4) would also be elongated in neutrophils to form ω-3 arachidonic acid (FIG. 1). Varying concentrations of stearidonic acid were provided to cultured neutrophils for 24 h. Lipids were extracted and the quantities of fatty acids determined after base hydrolysis using GC/MS.

[2] = system: leukotriene generation by stimulated neutrophils; assay: Inhibition of leukotriene generation in A23187-stimulated neutrophils in vitro; assay type: cell-based, human; settings: neutrophils from unsupplemented volunteers, ionophore A23187, read-out: IC50 of inhibition of leukotriene generation (LTB4 and 20-OH LTB4)
Method: (§1) Leukotrienes are separated by reverse phase HPLC utilizing an Ultrasphere ODS column (2.1 mm.×250 mm: Rainin Instrument Co, Woburn, Mass.) eluted with methanol/water/phosphoric acid (550:450:0.2 v/v, pH 5.7) as the mobile phase at 0.3 ml/min. After 5 min the methanol composition of the mobile phase is increased from 55% to 100% over a 20 min period. The mole quantities of each leukotriene are determined by examining its UV optical density at 270 nm. Individual peaks are integrated and their recoveries normalized by comparing these integrated areas to that of PGB2 added as an internal standard.
It is contemplated that neutrophils may also produce 8-hydroxy-9,11,14 […] from DGLA. […] Studies were also designed to examine whether 15-HETrE produced by neutrophils might influence LTB4 generation. […] Neutrophils were isolated from normal unsupplemented volunteers and were treated with various concentrations of 15-HETrE and then stimulated with ionophore A23187.

atopic asthmatics [3] = assay: Inhaled antigen challenge model of atopic asthma with prednisone; assay type: in vivo, human; settings: 40 mg prednisone daily for 7 days
From the text: Clinical data on each patient is entered into a database consisting of the following elements. Demographic data (age, sex, race, smoking history), and the data elements used to fulfill the above diagnostic criteria, spirometric data, presence of atopy (positive “prick” skin testing to respirable antigens), presence of LAR to inhaled antigen, and presence of allergic rhinoconjunctivitis. • Allergen skin testing—Atopic asthmatic subjects are identified by skin testing using the skin prick method at a 1:10 (wt/vol) dilution of 20 stock antigen solutions (Greer Laboratories, Lenoir, N.C.). Subjects must not be receiving immunotherapy, nor may they be treated with systemic corticosteroids for a minimum of 4 wk. Short acting antihistamines are avoided for at least 24 h and long acting for at least 7 days. […] Antigenic challenge generally begins between 7:30 and 8:00 am and the patient is monitored for a minimum of 12 h following antigenic challenge. […] Following each concentration, the FEV1 is measured at 5 min intervals (DS Plus, Warren E. Collins, Inc., Braintree, Mass.). […] Once a 20% drop in FEV1 is measured, or following the highest concentration, spirometry is performed every 15 min for the first hour and then hourly for the next 11 h.

human eosinophils = settings: eosinophils from atopic subjects incubated with GLA
Method: Eosinophils are purified by negative, immunomagnetic selection using monoclonals against FcKRIII (CD 16) present on neutrophils. Antibody tagged neutrophils are then incubated with anti-mouse IgG conjugated magnetic beads and removed by filtration over a magnetized steel wool column.
Therefore, it was important to determine how GLA was metabolized by human eosinophils. Thus, eosinophils were isolated from atopic subjects and incubated with GLA as described above.

[4] = in vivo
Method: Serum is extracted from 2 ml of venous blood from donors. Briefly, blood samples are incubated at 37° C. for 30 min. Blood clots are removed from the serum by centrifugation (600×g, 10 min). Residual red blood cells are removed from the serum by centrifugation using a Beckman Microfuge E for 5 min. After the addition of 1.9 ml of water to a 0.1 ml aliquot of the serum, lipids are extracted by the method of Bligh and Dyer (Bligh and Dyer, Can. J. Biochem. Physiol., 37:911-920, 1959); Chilton et al., J. Biol. Chem., 258:7268-7271, 1983). A portion (5%) of the extracted lipids is used to determine the mole quantities of fatty acids by GC/MS. Serum components are isolated into individual glycerolipid classes by TLC (System II or normal phase HPLC (Bligh and Dyer, 1959).
Free fatty acids are obtained from glycerolipids by base hydrolysis using 2 N KOH (30 min, 60° C.). […] The carboxylate anion of all fatty acids of interest and [^2H3]-stearic acid and [^2H8]-arachidonate (internal standard) are analyzed by NICI GC/MS using a Hewlett Packard mass spectrometer (HP 5989A). […]
The next set of studies was designed to determine the distribution of supplemented fatty acids or their metabolites within individual glycerolipid classes of serum. […] Serum glycerolipids were separated by TLC and fractions were analyzed for fatty acid content following base hydrolysis by NICI-GC/MS.

human neutrophils [5] = assay: In vitro metabolism of GLA / DGLA in cultured human neutrophils; assay type: cell-based
Method: It is generally assumed that the liver has a key role in the in vivo elongation and desaturation of n-6 fatty acids. However, the role of other cells (especially inflammatory cells) and tissues has not been extensively studied. In addition, it is critical to evaluate the mechanism of leukotriene inhibition in less complex (than in vivo model) systems. To begin to address these problems, the inventor developed a model in which neutrophils could be incubated long-term with fatty acids or other fatty acid derivatives. Human neutrophils have been isolated and cultured overnight in RPMI, 2% insulin-transferrin and fetal bovine serum (FBS). In initial studies, varying concentrations of GLA (complexed to albumin) were provided to these cultured neutrophils for 24 h. […] In contrast, there was no change in the quantity of AA in neutrophil phospholipids. […] Furthermore, they provide direct evidence that the neutrophils themselves can elongate GLA […].
It has been long recognized that arachidonate is hydrolyzed from membrane glycerolipids by phospholipase A2 isotypes during cell stimulation. However, to date, there is little direct evidence that similar mechanisms exist to mobilize DGLA. To examine this question, neutrophils that had been cultured with varying concentrations of GLA (0 to 200 nmol) were stimulated with ionophore A23187, and mobilized fatty acids were measured by NICI GC/MS. […] To determine if neutrophils can further metabolize DGLA to oxygenated products, stimulated cells were provided [^14C]-DGLA and products were measured by reverse HPLC. […] FIG. 11 illustrates that A23187 stimulated neutrophils produce a labeled product that migrated with 15-HETrE.

neutrophils [6] = settings: 3.0 g/day GLA
From the text: A final set of studies measured changes in the capacity of neutrophils to generate PAF ex vivo before and after GLA supplementation.

atopic asthmatics [7] = system: atopic asthmatics
From the text: Clinical data on each patient is entered into a database consisting of the following elements. Demographic data (age, sex, race, smoking history), and the data elements used to fulfill the above diagnostic criteria, spirometric data, presence of atopy (positive “prick” skin testing to respirable antigens), presence of LAR to inhaled antigen, and presence of allergic rhinoconjunctivitis. • Allergen skin testing—Atopic asthmatic subjects are identified by skin testing using the skin prick method at a 1:10 (wt/vol) dilution of 20 stock antigen solutions (Greer Laboratories, Lenoir, N.C.). Subjects must not be receiving immunotherapy, nor may they be treated with systemic corticosteroids for a minimum of 4 wk. Short acting antihistamines are avoided for at least 24 h and long acting for at least 7 days. Atopic subjects are defined as those with a positive response consisting of a wheal of at least 3 by 3 mm to one or more antigens, with an appropriately negative saline control. • Allergen Inhalation Challenge—The immediate (early) asthmatic response (EAR) or late asthmatic response (LAR) is studied under controlled conditions using inhaled antigenic challenge in volunteer patients with asthma using a previously described protocol (Smith et al., Clin. Pharm. Ther., 54:430-436, 1993). Atopic asthmatics undergo inhaled allergen challenge followed by BAL according to the following protocol. Subjects must have no lung disease other than asthma, and, on the day of testing, must have a baseline FEV1>70% of predicted. Subjects must not be receiving immunotherapy, nor may they be treated with cromolyn sodium or corticosteroids (inhaled or systemic) or leukotriene antagonist for a minimum of 4 wk. Short-acting antihistamines are avoided for at least 24 h and intermediate acting for 7 days (astemizole for 6 weeks). Theophylline preparations are withheld for 24 h prior to challenge and beta-agonists for 8 h prior to challenge. On the day of challenge, subjects must be wheeze-free, with an FEV1>than 80% of the previously observed highest value. If the patient has an intercurrent respiratory infection, inhalation challenge is postponed for at least 6 wk. Antigens to which the subject is perennially exposed (e.g., mite, cat) are utilized whenever possible to minimize the impact of seasonal variations in environmental exposure to the specific antigen. Further, antigen testing is conducted out of the respective allergen season, or after attempts to minimize environmental exposure (e.g., to mites or cats) have been implemented. Antigenic challenge generally begins between 7:30 and 8:00 am and the patient is monitored for a minimum of 12 h following antigenic challenge. […] The subject breathes quietly from a continuous hand-held nebulizer for 2 min at each concentration. Following each concentration, the FEV1 is measured at 5 min intervals (DS Plus, Warren E. Collins, Inc., Braintree, Mass.). […] Once a 20% drop in FEV1 is measured, or following the highest concentration, spirometry is performed every 15 min for the first hour and then hourly for the next 11 h.

neutrophils [8] = settings: 3.0 g/day GLA; remark: listed apart in the source
Method: as §1
To examine this question, neutrophils were stimulated and the synthesis of LTB4, 20-OH LTB4, and the 6 trans isomers of LTB4 were measured by reverse phase HPLC analysis.

neutrophils [9] = system: neutrophils
Method: Free fatty acids are obtained from glycerolipids by base hydrolysis using 2 N KOH (30 min, 60° C.). After the addition of an equal volume of water, the pH of the reaction mixture is adjusted to 3 using 6 N HCl. Free fatty acids are then extracted with ethyl ether and converted to pentafluorobenzylesters using an equal volume of 20% pentafluorobenzylchloride in acetonitrile and 20% diisopropylethylamine in acetonitrile. The carboxylate anion of all fatty acids of interest and [^2H3]-stearic acid and [^2H8]-arachidonate (internal standard) are analyzed by NICI GC/MS using a Hewlett Packard mass spectrometer (HP 5989A).
Neutrophils were next obtained from subjects before and after supplementation and stimulated with ionophore A23187.

[10] = system: Δ^5 desaturase in human liver cell line HEP-G2; assay: Inhibition of DGLA conversion to AA (Δ5 desaturase) in HEP-G2 liver cells; assay type: cell-based; settings: HepG2, HEP-G2, EPA at 50 μM added with DGLA, read-out: maximum inhibition of DGLA conversion to AA
From the text: This study illustrates the effectiveness of adding a Δ^5 desaturase inhibitor in conjunction with GLA in order to reduce serum arachidonic acid.

[11] = 4.5 g GLA as borage oil, 3 weeks, contemplated

Compound: CC/C=C\C/C=C\C/C=C\C/C=C\CCCCC(=O)O [stearidonic acid]
AA in neutrophils (human neutrophils [1]): nor was there an increase | eicosapentaenoic acid (Δ5 desaturase product of ω-3 arachidonic acid) in neutrophils (human neutrophils [1]): no increase | ω-3 arachidonic acid in neutrophil glycerolipids (human neutrophils [1]; varying concentrations of stearidonic acid): dose-dependent increase; also recorded: dramatic increase

Compound: C[C@]12C=CC(=O)C=C1CC[C@@H]1[C@@H]2C(=O)C[C@@]2(C)[C@H]1CC[C@]2(O)C(=O)CO [prednisone]
immediate response and LAR (fall in FEV1) after antigen challenge (atopic asthmatics [3]): ablated | level of eosinophil cationic protein (ECP) in BALF after antigen challenge (atopic asthmatics [3]; p=0.03): suppressed

Compound: CCCCC/C=C\C/C=C\C/C=C\CCCCC(=O)O [GLA, gammalinolenic acid]
DGLA in eosinophil glycerolipids (human eosinophils): marked increase | quantity of AA in eosinophil glycerolipids (human eosinophils): no change | AA in serum lipids vs baseline [4]: significantly increased | quantity of DGLA in neutrophil glycerolipids (human neutrophils [5]; cultured neutrophils, varying concentrations of GLA complexed to albumin, 24 h): increased as a function of the concentration of GLA | quantity of AA in neutrophil phospholipids (human neutrophils [5]; cultured neutrophils, varying concentrations of GLA, 24 h): no change | fatty acids mobilized on A23187 stimulation (human neutrophils [5]; neutrophils cultured with GLA (0 to 200 nmol)): DGLA along with AA were released | reduction in PAF produced by neutrophils vs before supplementation (neutrophils [6]): 40% | antigen-induced urinary LTE4 and BALF AA increases (atopic asthmatics [7]; [11]): attenuate | influx of eosinophils into airways during the LAR (atopic asthmatics [7]; [11]): reduce | response to antigen challenge (decrements in FEV1, immediate and late) (atopic asthmatics [7]; [11]): mitigate | magnitude of the early asthmatic response (atopic asthmatics [7]; four weeks GLA supplementation, compared to pre- and post-supplementation, two subjects): diminished | late asthmatic response (atopic asthmatics [7]; four weeks GLA supplementation, two subjects): did not influence | 20-OH LTB4, 6-trans LTB4 and 6-trans 12-epi LTB4 levels after supplementation (neutrophils [8]): decreased to a similar degree | reduction in LTB4 produced by stimulated neutrophils vs before supplementation (neutrophils [8]): 60% | increase in release of DGLA from stimulated neutrophils (neutrophils [9]; 1.5 g/day GLA): 63% | increase in release of DGLA from stimulated neutrophils (neutrophils [9]; 3.0 g/day GLA): 65% | increase in release of DGLA from stimulated neutrophils (neutrophils [9]; 6.0 g/day GLA): 69% | release of AA from neutrophil glycerolipids after A23187 stimulation (neutrophils [9]; following GLA supplementation): did not change

Compound: CC/C=C\C/C=C\C/C=C\C/C=C\C/C=C\CCCC(=O)O [EPA, eicosapentaenoic acid]
inhibition at 50 µM [10]: 50%

Other lines, results leading:

IC50 ([2]; Homo sapiens, Neutrophil): ~10 µM
Compound: CCCCC/C=C\C/C=C\C/C=C\CCCCCCC(=O)O [DGLA, dihomogammalinolenic acid]

IC50 [2]: ~5 µM
Compound: CCCCCC(O)/C=C/C=C\C/C=C\CCCCCCC(=O)O (centres unmarked) [15-HETrE, 15-OH-20:3, reference compound]
